Reference: patent US12195427B2, “MASP-2 inhibitors and methods of use” (priority 2018, dated 2025)
Where a name gives a salt, the structure may show the parent alone.

Legend:
human α-thrombin = human α-thrombin (Homo sapiens (Human), UniProt P00734); experiment: Enzymatic Assay for Thrombin (Boc-VPR-AMC); type: biochemical
MASP-2 CCP2-SP = MASP-2 CCP2-SP (Homo sapiens (Human), UniProt O00187); experiment: MASP-2 co-crystallization, X-ray crystallography and structure analysis (H-bonds, van der Waals contacts); design: van der Waals contact distance, MASP-2 HIS 483 atom CD2 / van der Waals contact distance, MASP-2 HIS 483 atom NE2 / van der Waals contact distance, SER 654 C to compound atom / van der Waals contact distance, SER 654 O to compound atom / van der Waals contact distance, TRP 655 C to compound atom / van der Waals contact distance, MASP-2 GLY 528 atom CA / van der Waals contact distance TRP 655 atom CZ3 / van der Waals contact distance TRP 655 atom N / van der Waals contact distance TRP 655 atom CE3 / van der Waals contact distance GLY 656 atom C / van der Waals contact distance GLY 656 atom CA / van der Waals contact distance GLY 656 atom O / van der Waals contact distance, MASP-2 TYR 607 atom CD1 / van der Waals contact distance, MASP-2 PRO 606 atom O / d(C3,CA1) / d(CA1,N1)2 / d(H4,O1) / d(H4,O2) / d(O1,O2) / d(CA1,O2) / d(CA6,O1) / d(CA6,O2) / d(CA1,C5) / d(O2,H3) / d(N2,C2) / d(CA5,N2) / d(N2,C4) / d(N2,C6) / d(N2,CA3) / d(N2,O3) / d(O4,H2): unit not given beside the values
MASP-2 CCP2-SP, sequence (O00187 445-686): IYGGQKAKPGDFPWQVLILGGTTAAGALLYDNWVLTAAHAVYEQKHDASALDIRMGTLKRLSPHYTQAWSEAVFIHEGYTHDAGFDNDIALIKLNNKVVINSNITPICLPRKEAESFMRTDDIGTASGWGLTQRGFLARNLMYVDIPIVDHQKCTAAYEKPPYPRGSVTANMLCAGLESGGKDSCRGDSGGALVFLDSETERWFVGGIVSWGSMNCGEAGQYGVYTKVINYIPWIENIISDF
MASP-2 CCP2-SP, sequence (O00187 364-432 partner): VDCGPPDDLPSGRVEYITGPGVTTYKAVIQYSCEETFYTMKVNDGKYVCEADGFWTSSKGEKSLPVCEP
Summary of the method: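 Inhibitor complexes were obtained by soaking crystals of E. coli-derived human MASP-2 CCP2-SP. Synchrotron diffraction at 1.0 wavelength, molecular replacement and partial refinement gave the models; one pose per ligand was chosen for contact analysis.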

Structure (SMILES)	Ki (human α-thrombin)	H-bond distance to MASP-2 GLY 656 atom N (MASP-2 CCP2-SP; Table A1 (H-Bonds), GLY 656 N)	H-bond distance to MASP-2 GLY 656 atom O (MASP-2 CCP2-SP; Table A1 (H-Bonds), GLY 656 O)	H-bond distance to MASP-2 SER 654 atom O (MASP-2 CCP2-SP; Table A1 (H-Bonds), SER 654 O)	van der Waals contact distance, MASP-2 amino acid atom to compound atom (MASP-2 CCP2-SP; Table A2)	van der Waals contact distance, MASP-2 HIS 483 atom CD2 (MASP-2 CCP2-SP; Table A2-1)	van der Waals contact distance, MASP-2 HIS 483 atom NE2 (MASP-2 CCP2-SP; Table A2-1)	van der Waals contact distance, MASP-2 GLY 528 atom CA (MASP-2 CCP2-SP; Table A2-2)	van der Waals contact distance, SER 654 C to compound atom (MASP-2 CCP2-SP; Table A2-11)	van der Waals contact distance GLY 656 atom CA (MASP-2 CCP2-SP; Table A2-13, MASP-2 GLY 656 CA)	van der Waals contact distance TRP 655 atom N (MASP-2 CCP2-SP; Table A2-13, MASP-2 TRP 655 N)
Cc1ccc(-c2c[nH]c(C(=O)N[C@@H](C)C(=O)NCc3ccc(C(=N)N)cc3)c2)cc1F [compound 1235, (S)—N-(1-((4-Carbamimidoylbenzyl)amino)-1-oxopropan-2-yl)-4-(3-fluoro-4-methylphenyl)-1H-pyrrole-2-carboxamide]	10 to 25 µM										
C[C@H](NC(=O)[C@H]1C[C@H](Cc2ccccc2)CN1)C(=O)NCc1cnc2c(c1)c(Cl)cn2C [compound 1450, (2R,4S)-4-Benzyl-N—((S)-1-(((3-chloro-1-methyl-1H-pyrrolo[2,3-b]pyridin-5-yl)methyl)amino)-1-oxopropan-2-yl)pyrrolidine-2-carboxamide Dihydrochloride]	2.5 to 10 µM	3.04	2.78	2.97	3.44	3.9	3.88	3.89	3.81	3.75	3.66
